Data from patent publication US9186335B2, “Hot melt TTS for administering rotigotine” (UCB PHARMA GMBH, priority 2002, dated 2015).

Experiment: Rotigotine purity/stability in the hot-melt adhesive matrix by gradient HPLC with UV detection
Format: physicochemical
Details: short-term heating to temperatures up to at least 160° C.

In the case of `CCCN(CCc1cccs1)[C@H]1CCc2c(O)cccc2C1` [Rotigotine, (−)-5,6,7,8-tetrahydro-6-[propyl[2-(2-thienyl)ethyl)amino]-1-napththol], the stability under heating was “remains stable”.
